These results are taken from patent US20150290192A1, “INHIBITORS OF BRUTON'S TYROSINE KINASE” (HOFFMANN-LA ROCHE INC., priority 2012, published 2015).

The target of one data set is Bruton's Tyrosine Kinase (Homo sapiens, UniProt Q06187). Description: Bruton's Tyrosine Kinase (BTK) inhibition TR-FRET competition assay. Format: binding. Particulars: for IC50: inactivated state of BTK, 18-24 h at 14° C. On the procedure: This BTK competition assay measures compound potency (IC50) for the inactivated state of Bruton's Tyrosine Kinase using FRET (Firster/Fluorescence Resonance Energy Transfer) technology. The BTK-Eu complex was incubated on ice one hour prior to use at a starting concentration of 50 nM BTK-Bioease™: 10 nM Eu-streptavidin (Perkin-Elmer Catalog#AD0062). The assay buffer consisted of 20 mM HEPES (pH 7.15), 0.1 mM DTT, 10 mM MgCl2, 0.5 mg/ml BSA with 3% Kinase Stabilizer (Fremont Biosolutions, Catalog #STB-K02). After 1 h, the reaction mixture from above was diluted 10 fold in assay buffer to make 5 nM BTK: InM Eu-Streptavidin complex (donor fluorophore). 18 l of a mixture of 0.11 nM BTK-Eu and 0.11 nM Kinase Tracer 178 (Invitrogen, Catalog #PV5593,) with BTK-Eu alone as no negative control, was then dispensed into 384-well flat bottom plates (Greiner, 784076). Compounds to be tested in assay were prepared as 10× concentrations and serial dilution in half-log increments was performed in DMSO so as to generate 10 point curves. To initiate the FRET reaction, compounds prepared as 10× stock in DMSO was added to the plates and the plates were incubated 18-24 h at 14° C.
After the incubation the plates were read on a BMG Pherastar Fluorescent plate reader (or equivalent) and used to measure the emission energy from the europium donor fluorophore (620 nm emission) and the FRET (665 nm emission). The negative control well values were averaged to obtain the mean minimum. The positive “no inhibitor” control wells were averaged to obtain the mean maximum. Percent of maximal FRET was calculated using following equation:
% max FRET=100×[(FSRcmpd−FSRmean min)/(FSRmean max−FSRmean min)]
where FSR=FRET Signal ratio. % Max FRET curves were plotted in Activity Base (Excel) and the IC50(%), hill slope, z′ and % CV were determined. The mean IC50 and standard deviation will be derived from duplicate curves (singlet inhibition curves from two independent dilutions) using Microsoft Excel.
A general note: TR-FRET usually uses a lanthanide donor and a delayed reading to cut background.

Data set [1] deals with human mast cells (FCεRI activation). The data set is described as follows: Human mast cell activation, mediator release after FCεRI activation. Format: cell-based. The conditions noted are these: N = 3 donors. As for the experimental part: One million human cord blood derived CD34+ hematopoietic stem cells (HSCs) from different donors (AllCells #CB008F-S, Emeryville, Calif.) were cultured for eight weeks in a serum-free complete medium (StemPro-34 with supplements; Invitrogen, Carlsbad, Calif.), with recombinant h-SCF (100 ng/ml) and h-IL6 (50 ng/ml). During the first week of culturing, recombinant h-IL3 (10 ng/ml) was also included to support HSCs differentiation. After 8 weeks of culture, cells were stimulated with recombinant h-IL-4 (10 ng/ml) for 5 days. Confirmation of the mast cell differentiation process was routinely done by FACS to check for c-kit and FcsRI expression; differentiated cells were routinely more than 90% c-kit positive, FceRI positive. Differentiated mast cells were sensitized with […] anti-NP IgE (Serotec, Raleigh, N.C.) overnight at 37° C. Cells were washed and then treated with Compound 1 for 1 hour at 37° C. After treatment, cells were cross-linked with […] NP(30)-BSA (Biosearch Technologies, Novato Calif.) for 30 minutes (for histamine and lipid mediator assessment) or overnight (for cytokine assessment). Culture supernatants were collected and assayed for histamine (Oxford Biomedical Research, Rochester Hills, Mich.), PGD2 and LTC4 (Cayman Chemical Company, Ann Arbor Mich.), and IL-5 and IL-13 (Bio-Rad Bio-Plex Pro cytokine quantification kit) release as per kits' instructions. Compound 1, Compound 2 and Compound 3 reduced the release of these mediators into the supernatant in a concentration dependent manner up to 100% efficacy and the IC50 values are reported in Table 2.

Data set [2] has as its system human B cells (BCR activation). Description: Human B cell antibody production after BCR activation. Particulars: Homo sapiens, B-cell, 240 h, 10 days culture, N = 3 donors. In kind it is cell-based. On the procedure: Human total B cells were enriched with RosetteSep human B cell enrichment cocktail (#28921, Vancouver, BC) from buffy coat leukocyte packs (New York Blood Center) following manufacturer's protocol. Enriched B cell purity (around 80%) was checked by FACS with CD19+ staining. B cells were suspended (0.1 million cells/well/100 μl) in RPMI-1640 based conditional medium (50 ng/ml IL-2, 50 ng/ml IL-10, and […] anti-IgD for the activation of B cells to produce IgG/IgM; 10 ng/ml IL-4, 10 ng/ml IL-10, 25 ng/ml IL-21, and […] anti-CD40 for the activation of B cells to produce IgE) together with Compound 1 (1 nM-10 μM). Cells were cultured for 10 days (for IgG/IgM production) or 14 days (for IgE production) at 37° C. Culture supernatants were collected for IgM, IgG, and IgE analysis following Bethyl Laboratory's protocol (#E80-104, #E80-100, #E80-108, Montgomery, Tex.).

A short description of a further data set: Pharmacokinetics in rat. In kind it is in vivo. Particulars: for CL / clearance: 0.5 mg/kg (iv); for Oral Bioavailability / bioavailability: 0.5 (iv), 2 (po) mg/kg; for clearance / bioavailability: plasma; for bioavailability: 2 mg/kg.
A short description of a further data set: Pharmacokinetics in dog. Particulars: for CL / clearance: 1.0 mg/kg (iv); for Oral Bioavailability / bioavailability: 1.0 (iv), 1.0 (po) mg/kg; for clearance / bioavailability: plasma; for bioavailability: 1 mg/kg. In kind it is in vivo.
A further data set addresses Btk kinase (Homo sapiens, UniProt Q06187). Description: Btk Biacore binding assay. The conditions noted are these: for off rate: Biacore; for kon: read-out: Biacore Ka. A general note: Surface plasmon resonance follows binding to a sensor surface in real time, without labels.
For data set [3], the system named is OVA sensitized and challenged mice, allergen-induced bronchoconstriction. Description: Ovalbumin-induced allergic airway disease: allergen-induced bronchoconstriction. Particulars: Intranasal.
Where [4] appears, read: read-out: IC50 Histamine release.
Setting [5] is: delivered dose 0.3 mg/kg, deposited dose 0.3 mg/kg.
The mark [6] stands for this setting: delivered dose 1.0 mg/kg, deposited dose 1.0 mg/kg.
Setting [7] is: delivered dose 3.0 mg/kg, deposited dose 3.0 mg/kg.

Where two headings read alike, the source gives them in different places. Marks after values point to notes of the source that are not given here. Where only a bound is given, the exact number is not on record here.

Sequence of Bruton's Tyrosine Kinase (Q06187 whole entry): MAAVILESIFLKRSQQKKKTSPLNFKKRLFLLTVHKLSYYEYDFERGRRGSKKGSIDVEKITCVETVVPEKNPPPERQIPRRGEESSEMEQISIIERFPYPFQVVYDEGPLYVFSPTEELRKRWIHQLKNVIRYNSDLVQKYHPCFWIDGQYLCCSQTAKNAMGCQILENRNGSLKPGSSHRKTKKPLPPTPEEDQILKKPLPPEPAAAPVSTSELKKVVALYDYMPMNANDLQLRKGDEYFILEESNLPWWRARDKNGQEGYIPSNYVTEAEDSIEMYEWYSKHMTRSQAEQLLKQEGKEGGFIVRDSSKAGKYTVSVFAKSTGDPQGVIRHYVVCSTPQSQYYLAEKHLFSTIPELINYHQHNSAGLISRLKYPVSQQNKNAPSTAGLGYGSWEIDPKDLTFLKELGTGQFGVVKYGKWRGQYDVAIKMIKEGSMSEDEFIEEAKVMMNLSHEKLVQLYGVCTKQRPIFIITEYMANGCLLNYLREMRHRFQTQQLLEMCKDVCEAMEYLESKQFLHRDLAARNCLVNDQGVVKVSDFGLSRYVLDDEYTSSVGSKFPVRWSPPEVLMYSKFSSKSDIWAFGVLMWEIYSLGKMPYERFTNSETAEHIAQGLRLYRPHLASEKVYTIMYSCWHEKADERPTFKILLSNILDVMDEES
Sequence of Btk kinase (Q06187 whole entry): as above
Experimental for Btk kinase: Analyses were performed on a Biacore T-100. Btk kinase was avi-tagged and co-expressed in baculovirus with biotin ligase to generate single site biotinylated Btk (Avidity, LLC). Biotinylated target was captured on Biacore streptavidin sensor chips (Series S Sensor Chip SA) at densities of ˜10000 resonance units (1 ru˜1 pg protein/mm2). […] Compounds were injected for 100 seconds association time and dissociation was followed for 20 min.

Consider `Cn1nc(Nc2cc(-c3cccc(-n4ccc5cc(C(C)(C)C#N)cc(F)c5c4=O)c3CO)nn(C)c2=O)cc1CN1CCC1` [Compound 2, 2-(2-{3-[5-(5-Azetidin-1-ylmethyl-1-methyl-1H-pyrazol-3-ylamino)-1-methyl-6-oxo-1,6-dihydro-pyridazin-3-yl]-2-hydroxymethyl-phenyl}-8-fluoro-1-oxo-1,2-dihydro-isoquinolin-6-yl)-2-methyl-propionitrile], for which the “Btk inhibitor potency (FRET)” value at Bruton's Tyrosine Kinase is on record as “very potent”. Moreover, the IC50 (usually the midpoint of a concentration-inhibition curve) is 1.1 nM on Bruton's Tyrosine Kinase; 91.9 nM in data set [1] (read-out: IC50 1L-13 release); 26 nM in data set [1] (read-out: IC50 GM-CSF release); 9.6 nM in data set [1] (setting [4]); 13.2 nM in data set [1] (read-out: IC50 IL-5 release); 3.09 nM in data set [1] (read-out: IC50 PGD2 release). Also, the IC50 in data set [2] (read-out: IC50 IgG production) turned out to be 9.26 nM; in data set [2] (read-out: IC50 IgM production), 3.28 nM. Also, the CL entry in the data set “Pharmacokinetics in rat” (Table 8) and in “Pharmacokinetics in dog” (Table 8) was “high” in each case. Besides, the “Oral Bioavailability” value in the data set “Pharmacokinetics in rat” (Table 8) and in “Pharmacokinetics in dog” (Table 8) was “low” each time. Also, the clearance (commonly a measure of how efficiently the substance is removed, as volume per time) in the data set “Pharmacokinetics in rat” (Table 8) is 84.9 mL/min/kg; in “Pharmacokinetics in dog” (Table 8), 35 mL/min/kg. Besides, the bioavailability (usually the share of a dose that reaches the circulation, judged against a reference dose that is usually intravenous) in “Pharmacokinetics in rat” (Table 8) is less than 2%; in “Pharmacokinetics in dog” (Table 8), 4%. For the same compound, the Kd (usually the free concentration of one partner at which half of the binding sites on the other are occupied at equilibrium, for simple one-to-one binding) at Btk kinase was found to be 1.48 nM. In addition, at Btk kinase, the off rate entry is reported as “very slow”. The kon on Btk kinase is 453000 M⁻¹ s⁻¹. The entries for the “% reduction in airway resistance (R)” value in data set [3] (setting [5]), in data set [3] (setting [6]) and in data set [3] (setting [7]) were 53%, 64* % and 105* %, respectively.
For the compound `COCCNCc1ccc(Nc2cc(-c3cccc(N4CCc5cc(C(C)(C)C)ccc5C4=O)c3CO)cn(C)c2=O)nc1` [Compound 3, 6-tert-Butyl-2-[2-hydroxymethyl-3-(5-{5-[(2-methoxy-ethylamino)-methyl]-pyridin-2-ylamino}-1-methyl-6-oxo-1,6-dihydro-pyridin-3-yl)-phenyl]-3,4-dihydro-2H-isoquinolin-1-one], the “Btk inhibitor potency (FRET)” value at Bruton's Tyrosine Kinase is listed as “very potent”. For the same compound, the IC50 stood at 0.2 nM on Bruton's Tyrosine Kinase; 97.4 nM in data set [1] (read-out: IC50 1L-13 release); 28.6 nM in data set [1] (read-out: IC50 GM-CSF release); 21.7 nM in data set [1] (setting [4]); 86.7 nM in data set [1] (read-out: IC50 IL-5 release); 5.31 nM in data set [1] (read-out: IC50 PGD2 release). Further, the results for the IC50 in data set [2] (read-out: IC50 IgG production) and in data set [2] (read-out: IC50 IgM production) were 3.17 nM and 4.76 nM, respectively. Besides, the CL result in “Pharmacokinetics in rat” (Table 9) and in the data set “Pharmacokinetics in dog” (Table 9) was “high” each time. The “Oral Bioavailability” value in “Pharmacokinetics in rat” (Table 9) and in the data set “Pharmacokinetics in dog” (Table 9) was “low” throughout. Moreover, the clearance in the data set “Pharmacokinetics in rat” (Table 9) is 111 mL/min/kg; in “Pharmacokinetics in dog” (Table 9), 31.4 mL/min/kg. Also, the bioavailability came to 7% in “Pharmacokinetics in rat” (Table 9) and 8% in the data set “Pharmacokinetics in dog” (Table 9). This compound also showed a Kd at Btk kinase of 0.119 nM. Besides, the off rate result on Btk kinase is on record as “very slow”. Also, the kon at Btk kinase stood at 1.07e+06 M⁻¹ s⁻¹. The “% reduction in airway resistance (R)” value is given as 77* % in data set [3] (setting [5]), 83* % in data set [3] (setting [6]) and 93* % in data set [3] (setting [7]).
